Usually IC50 stands for the concentration needed to halve the response being measured. A lower IC50 goes with greater potency in that assay.

Results on 8 compounds are retold here after patent US20240228493A1, “LRRK2 INHIBITORS AND USES THEREOF” (NEURON23, ICN., priority 2022, published 2024).

Data set [1] relates to human hepatocyte. The experiment in a line: Human hepatocyte stability, predicted hepatic clearance (h-Hept CL predict). It is filed as in vitro ADME. Particulars: human hepatocytes, 0.5×10^6 cells/mL, 1 μM, values without asterisk. Here is the method: The compounds disclosed herein were tested in vitro on human hepatocyte for in vitro h-Hept CL predict according to the following procedures. • 1. Compound sock solutions were prepared by dissolving test compound and positive control in dimethyl sulfoxide (DMSO) at a concentration of 10 mM. Stock solutions were then diluted to 100 μM solutions by combining 198 μL of 50% acetonitrile/50% water with 2 μL of the 10 mM stock in separate conical tubes. • 2. Cryopreserved hepatocytes were prepared as follows: Incubation medium (William's E Medium supplemented with GlutaMAX) and hepatocyte thawing medium were placed in a 37° C. water bath and allowed to warm for at least 15 minutes prior to use. Cryopreserved hepatocytes were removed from storage, ensuring that vials remained at cryogenic temperatures until thawed. Cells were thawed by placing the vials in a 37° C. water bath and gently shaking the vials for 2 minutes. After thawing was completed, vials were sprayed with 70% ethanol and transferred to a biosafety cabinet. Hepatocytes were transferred into 50 mL conical tube containing thawing medium using wide-bore pipette tips. Tubes were placed into a centrifuge and spun at 100 g for 10 minutes. Then thawing medium was aspirated and hepatocytes were resuspended in enough incubation medium to yield ˜1.5×10^6 cells/mL. Cells were counted using acridine orange and propidium iodide (AO/PI) staining, and the viable cell density was determined. Cells were diluted with incubation medium to a working cell density of 0.5×10^6 viable cells/mL. • 3. To determine hepatocyte stability, 198 μL of hepatocytes were transferred into each well of a 96-well non-coated plate. Plates were placed in an incubator to allow the hepatocytes to warm for 10 minutes. • 4. The reaction was started by transferring 2 μL of the 100 μM test compound or positive control solution into respective wells of the 96-well non-coated plates. Plates were returned to the incubator until 25 μL aliquots of well contents were sampled at time points of 0, 15, 30, 60, 90 and 120 minutes. The aliquots were then mixed with 6 volumes (150 μL) of acetonitrile containing internal standard, IS (100 nM alprazolam, 200 nM caffeine and 100 nM tolbutamide) to terminate the reaction and vortexed for 5 minutes. After centrifuging the samples for 45 minutes at 3,220 g, aliquots of 100 μL of the supernatant were taken and diluted with 100 μL of ultra-pure water. The mixture was used for LC/MS/MS analysis. All incubations were performed in duplicate.
All calculations were carried out using Microsoft Excel. Peak area ratios (PAR) were determined from extracted ion chromatograms. The in vitro half-life (t1/2) of parent compound was determined by regression analysis of the percent parent disappearance vs. time curve as follows:
Conversion of the in vitro t1/2 (in minutes) into the in vitro intrinsic clearance (in vitro CLint, in μL/min/1×10^6 cells) was done using the following equation (mean of duplicate determinations): […]
The scaled-up intrinsic clearance (CLint, mL/min/kg), predicted hepatic clearance (CLH, mL/min/kg) and hepatic extraction ratio (ER) were calculated using the following equations:
CLint=(0.693/t1/2)*(1/(hepatocyte concentration (0.5*10^6 cells/mL)))*scaling factors (Table (A) Appendix Table 1)
CLHept-predict=(QH*Scaled-up CLint*fub)/(QH+Scaled-up CLint*fub)
ER=CLH/QH • Where: • V=incubation volume (0.2 mL) • N=number of hepatocytes per well (0.1*10^6 cells) • QH=hepatic blood flow (mL/min/kg) (Table (A) Appendix Table 1) • fub=fraction of unbound drug in plasma, assumed to be 1

The target of data set [2] is T1, wt human LRRK2, catalytic site (Homo sapiens, UniProt Q5S007).
T1 construct: wt human LRRK2, catalytic site, catalytic site (ThermoFisher/USA); purchased ThermoFisher
T1 sequence (Q5S007 1879-2138 limits assumed): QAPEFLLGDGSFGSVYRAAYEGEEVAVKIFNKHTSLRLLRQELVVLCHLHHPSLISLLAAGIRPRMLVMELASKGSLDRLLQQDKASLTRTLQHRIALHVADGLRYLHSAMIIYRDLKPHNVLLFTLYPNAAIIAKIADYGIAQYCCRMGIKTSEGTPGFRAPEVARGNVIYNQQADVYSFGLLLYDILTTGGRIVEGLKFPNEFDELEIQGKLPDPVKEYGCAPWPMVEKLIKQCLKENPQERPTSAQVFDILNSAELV
As to the kind of experiment: TR-FRET LanthaScreen Tb Kinase Activity Assay, LRRK2 inhibition. As to conditions: 2 nM wt human LRRK2, 400 nM peptide, 38 μM ATP. It is filed as biochemical. Here is the method:
The compounds disclosed herein were tested for their inhibitory effect on LRRK2 kinase according to the following procedures.
The protocol for basic TR-FRET LanthaScreen Tb Kinase Activity Assay inhibitor studies were as follows. LanthaScreen Kinase Activity Assays (ThermoFisher/USA) to evaluate inhibitors were performed by addition of 100 nL of test compound in corresponding DMSO dilutions/5 μL of kinase/fluorescein-ERM (LRRKtide) peptide mixture, Compound & kinase were pre-incubated for 15 minutes, then 5 μl of ATP into 384 well small volume plates. After incubation for 120 minutes at room temperature, the detection reagents containing Tb-anti-pLRRKtide antibody were added to monitor phosphorylation level of peptide. Then, after 60 min minutes incubation at room temperature plates were read in Envision. Data analysis of emission ratios was according to LanthaScreen Tb Kinase Activity Assay protocol.
Kinase and assay components were adjusted to final concentrations according to the kit protocol. For LRRK2: 2 nM wt human LRRK2, catalytic site, catalytic site (ThermoFisher/USA), 400 nM peptide, 38 μM ATP in 1× Kinase Buffer A. […]
Kinase and assay components were adjusted to final concentrations according to the kit protocol.
(In general: Time-resolved FRET reads energy transfer from a long-lived donor to a nearby acceptor.)

The subject of data set [3] is Caco-2 cells. The experiment in a line: Caco-2 bidirectional permeability. It is filed as in vitro ADME. Particulars: for Caco-2 ER: Efflux Ratio=Papp(BA)/Papp(AB); for Caco-2 A2B (10^−6 cm/s): apical to basolateral; for Caco-2 A2B (10^−6 cm/s) / Caco-2 B2A (10^−6 cm/s): 2 hours, pH 7.4; for Caco-2 B2A (10^−6 cm/s): basolateral to apical. Here is the method:
The compounds disclosed herein were tested in vitro on CaCo2 cell penetration according to the following procedures.
Caco-2 cells purchased from ATCC were seeded onto […] (PET) in 96-well Corning Insert plates at 1×10^5 cells/cm^2. The media were refreshed every 4 to 5 days until the 21st to 28th day for confluent cell monolayer formation.
Experiments were run in duplicate using a HBSS transport buffer containing 10 mM HEPES at pH 7.4. The test article TEST COMPOUND was tested bi-directionally at […] concentrations, the control compound digoxin was tested bi-directionally at 10 μM, and nadolol and metoprolol were tested at 2.0 μM in the A to B direction. Final DMSO concentrations were adjusted to less than 1%. The plates were incubated for 2 hours in a CO2 incubator at 37±1° C. with 5% CO2 at saturated humidity without shaking. Following incubation, samples were mixed with acetonitrile containing internal standard and centrifuged at 3200×g for 10 minutes. Then 200 μL of supernatant was taken from all samples. For TEST COMPOUND and digoxin, the supernatant was diluted with 200 μL of ultra-pure water and for nadolol and metoprolol, the supernatant was diluted with 600 μL of ultra-pure water. All samples were analyzed by LC-MS/MS. Concentrations of TEST COMPOUND and control compounds were determined in starting solutions, donor well solutions, and receiver well solutions using peak area ratios (PAR) of analyte to internal standard. After the transport assay, a lucifer yellow rejection assay was run to determine the Caco-2 cell monolayer integrity.
The apparent permeability (Papp), the % recovery and the efflux ratio were calculated as follows:
Papp=(dCr/dt)×Vr/(A×C0) 1.
Efflux Ratio=Papp(BA)/Papp(AB) 3. • Where: • dCr/dt is the slope of the cumulative concentration in the receiver compartment versus time (mM/s). • Vr and Vd is the volume in the receiver and donor compartments (0.075 mL on the apical side, 0.25 mL on the basolateral side), respectively. • A is the surface area of the cell monolayer (0.0804 cm^2). • C0 is the measured donor concentrations (μM) at the beginning of the experiment. • Cd and Cr are the final measured concentrations in the donor and receiver compartments, respectively.

On to `Cc1n[nH]c2c1N=C(c1c(F)cccc1F)Nc1cnc(-c3cn[nH]c3)cc1-2` [Example 29, 8-(2,6-difluorophenyl)-5-methyl-13-(1H-pyrazol-4-y1)-3,4,7,9,12-pentazatricyclo[8.4.0.02,6]tetradeca-1(10),2(6),4,7,11,13-hexaene], for which the “hHep Cl (mL/min/kg)” value in data set [1] is recorded as “L (L (Low Cl)”: Hep Cl (mL/min/kg)<6.3)”. The compound also showed an IC50 in data set [2] below 1 nM. In data set [3], the “Caco-2 ER” value is “L (L (Likely)”: ER≥2.5)”, the “Caco-2 A2B (10^−6 cm/s)” value is “L (L (Low permeability)”: A2B (B2A)<1)” and the “Caco-2 B2A (10^−6 cm/s)” value is reported as “H (H (High permeability)”: A2B (B2A)>5)”.

Turning to `Fc1cccc(F)c1C1=Nc2c(Cl)n[nH]c2-c2cc(-c3ccn(CC(F)F)n3)ncc2N1` [Example 30, (3-chloro-9-(1-(2,2-difluoroethyl)-1H-pyrazol-3-yl)-5-(2,6-difluorophenyl)-1,6-dihydropyrazolo[4,3-d]pyrido[4,3-f][1,3]diazepine)], in data set [1], the “hHep Cl (mL/min/kg)” value is on record as “I (I (Intermediate Cl)”: 6.3≤Hep Cl (mL/min/kg)≤14.7)”. The compound also showed an IC50 in data set [2] below 1 nM. In addition, in data set [3], the “Caco-2 ER” value was “L (L (Likely)”: ER≥2.5)”, the “Caco-2 A2B (10^−6 cm/s)” value is recorded as “M (M (Moderate permeability)”: 1≤A2B (B2A)≤5)” and the “Caco-2 B2A (10^−6 cm/s)” value is “H (H (High permeability)”: A2B (B2A)>5)”.

Turning to `COC1(C#Cc2cc3c(cn2)NC(c2c(F)cccc2F)=Nc2c(C)n[nH]c2-3)CCOCC1` [Example 31, 8-(2,6-difluorophenyl)-13-[2-(4-methoxytetrahydropyran-4-y1)ethynyl]-5-methyl-3,4,7,9,12-pentazatricyclo[8.4.0.02,6]tetradeca-1(10),2(6),4,7,11,13-hexaene], the “hHep Cl (mL/min/kg)” value in data set [1] was “I (I (Intermediate Cl)”: 6.3≤Hep Cl (mL/min/kg)≤14.7)”. Further, the IC50 in data set [2] was below 1 nM. Further, in data set [3], the “Caco-2 ER” value is listed as “L (L (Likely)”: ER≥2.5)”, the “Caco-2 A2B (10^−6 cm/s)” value is reported as “M (M (Moderate permeability)”: 1≤A2B (B2A)≤5)” and the “Caco-2 B2A (10^−6 cm/s)” value is “H (H (High permeability)”: A2B (B2A)>5)”.

Turning to `Cc1n[nH]c2c1N=C(c1c(F)cccc1F)Nc1c-2cc(N2CCC(O)CC2)nc1C` [Example 40, 1-(5-(2,6-difluorophenyl)-3,7-dimethyl-1,6-dihydropyrazolo[4,3-d]pyrido[4,3-f][1,3]diazepin-9-yl)piperidin-4-ol], in data set [1], the “hHep Cl (mL/min/kg)” value is on record as “I (I (Intermediate Cl)”: 6.3≤Hep Cl (mL/min/kg)≤14.7)”. The same compound displayed an IC50 in data set [2] below 1 nM. Further, in data set [3], the “Caco-2 ER” value is reported as “L (L (Likely)”: ER≥2.5)”, the “Caco-2 A2B (10^−6 cm/s)” value is given as “M (M (Moderate permeability)”: 1≤A2B (B2A)≤5)” and the “Caco-2 B2A (10^−6 cm/s)” value was “H (H (High permeability)”: A2B (B2A)>5)”.

For `Cc1n[nH]c2c1N=C(c1c(F)cccc1F)Nc1c-2cc(N2CCN(S(C)(=O)=O)CC2)nc1C` [Example 44, 5-(2,6-difluorophenyl)-3,7-dimethyl-9-(4-(methylsulfonyl)piperazin-1-yl)-1,6-dihydropyrazolo[4,3-d]pyrido[4,3-f][1,3]diazepine], in data set [1], the “hHep Cl (mL/min/kg)” value was “L (L (Low Cl)”: Hep Cl (mL/min/kg)<6.3)”. In data set [2], this compound gave an IC50 below 1 nM. Moreover, in data set [3], the “Caco-2 ER” value was “L (L (Likely)”: ER≥2.5)”, the “Caco-2 A2B (10^−6 cm/s)” value is on record as “L (L (Low permeability)”: A2B (B2A)<1)” and the “Caco-2 B2A (10^−6 cm/s)” value is recorded as “H (H (High permeability)”: A2B (B2A)>5)”.

Consider `Cc1nc(N2CCC[C@@H](C#N)C2)cc2c1NC(c1c(F)cccc1F)=Nc1cn[nH]c1-2` [Example 47, (R)-1-(5-(2,6-difluorophenyl)-7-methyl-1,6-dihydropyrazolo[4,3-d]pyrido[4,3-f][1,3]diazepin-9-y1)piperidine-3-carbonitrile], for which, in data set [1], the “hHep Cl (mL/min/kg)” value was “H (H (High Cl)”: Hep Cl (mL/min/kg)>14.7)”. In data set [2], this compound came in with an IC50 below 1 nM. Moreover, in data set [3], the “Caco-2 ER” value was “L (L (Likely)”: ER≥2.5)”, the “Caco-2 A2B (10^−6 cm/s)” value was “M (M (Moderate permeability)”: 1≤A2B (B2A)≤5)” and the “Caco-2 B2A (10^−6 cm/s)” value is listed as “H (H (High permeability)”: A2B (B2A)>5)”.

`Cc1n[nH]c2c1N=C(c1c(F)cccc1F)Nc1cnc(N3CC[C@@H](C#N)C3)cc1-2` [Example 49, (R)-1-(5-(2,6-difluorophenyl)-3-methyl-1,6-dihydropyrazolo[4,3-d]pyrido[4,3-f][1,3]diazepin-9-y1)pyrrolidine-3-carbonitrile]: the “hHep Cl (mL/min/kg)” value in data set [1] is given as “I (I (Intermediate Cl)”: 6.3≤Hep Cl (mL/min/kg)≤14.7)”. Moreover, in data set [2], the IC50 lay within 1 to 100 nM. Also, in data set [3], the “Caco-2 ER” value is recorded as “L (L (Likely)”: ER≥2.5)”, the “Caco-2 A2B (10^−6 cm/s)” value is “M (M (Moderate permeability)”: 1≤A2B (B2A)≤5)” and the “Caco-2 B2A (10^−6 cm/s)” value was “H (H (High permeability)”: A2B (B2A)>5)”.

For `Cc1n[nH]c2c1N=C(c1c(F)ccc(CO)c1F)Nc1cnc(N3CCOCC3)cc1-2` [Example 50, (2,4-difluoro-3-(3-methyl-9-morpholino-1,6-dihydropyrazolo[4,3-d]pyrido[4,3-f][1,3]diazepin-5-yl)phenyl)methanol], the “hHep Cl (mL/min/kg)” value in data set [1] was “L (L (Low Cl)”: Hep Cl (mL/min/kg)<6.3)”. Further, in data set [2], the IC50 lay in the range of 1 to 100 nM. For the same compound, in data set [3], the “Caco-2 ER” value is reported as “L (L (Likely)”: ER≥2.5)”, the “Caco-2 A2B (10^−6 cm/s)” value is “L (L (Low permeability)”: A2B (B2A)<1)” and the “Caco-2 B2A (10^−6 cm/s)” value is “H (H (High permeability)”: A2B (B2A)>5)”.
